Reference: patent US10906890B2, “Triazole phenyl compounds as agonists of the APJ receptor” (AMGEN INC., priority 2016, dated 2021)

Biological target: human APJ-AT1R (angiotensin Type 1) double stable CHO cell line (Homo sapiens (Human), UniProt P35414)
Test: IP1 accumulation (TR-FRET) with AngII in APJ-AT1R double stable CHO cells
Assay type: cell-based
Details: fixed concentration of agonist with different concentrations of AngII
Method: Briefly, the CHO-K1 APJ/AT1R cells were seeded in culture medium of DMEM-F12 and 10% FBS at a density of 15 k/well in a 96 well plate overnight. The next day, the culture medium was replaced with medium containing no serum for 4 hours. The compound AngII at a range of concentrations (1 pM-10 μM) with or without different concentrations of APJ agonists were diluted in stimulation buffer and added to the cell plate. The plate was sealed and incubated for 1 hour. This was followed by addition of IP-d2 conjugate followed by europium cryptate antibody conjugate into the wells. The plate was sealed, followed with incubation for 2 hours at RT. Time-resolved fluorescence resonance energy (TR-FRET) at 620 nm and 665 nm was measured after 2 hours with an Envision reader. The signal ratios and delta F were calculated and the amount of IP1 produced was inversely proportional to the TR-FRET ratio, 665/620 nm.

human APJ-AT1R (angiotensin Type 1) double stable CHO cell line, sequence (P35414 whole entry): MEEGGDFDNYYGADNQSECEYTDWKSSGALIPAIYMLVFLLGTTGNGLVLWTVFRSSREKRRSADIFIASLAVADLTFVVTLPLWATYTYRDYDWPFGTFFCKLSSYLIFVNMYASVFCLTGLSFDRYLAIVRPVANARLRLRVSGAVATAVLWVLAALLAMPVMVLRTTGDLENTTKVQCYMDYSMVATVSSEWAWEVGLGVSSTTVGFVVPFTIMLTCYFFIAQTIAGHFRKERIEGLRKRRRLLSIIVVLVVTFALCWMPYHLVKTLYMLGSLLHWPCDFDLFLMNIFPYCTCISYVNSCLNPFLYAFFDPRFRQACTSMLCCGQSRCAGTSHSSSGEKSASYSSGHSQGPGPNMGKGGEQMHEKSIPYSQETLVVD

SMILES	positive cooperativity on AngII IP1 response
CCCCc1nc(Cl)c(CO)n1Cc1ccc(-c2ccccc2-c2nn[nH]n2)cc1 [losartan]	relieved this cooperativity

System: Heart failure rat model (MI Rat Model)
Test: In vivo heart failure (MI) rat model, cardiac contractility
Details: heart failure rats in vivo, acute settings, with ACE inhibitor captopril
Method: Based on the ex vivo findings in isolated heart assay, APJ agonists were dosed in vivo to investigate the translation of cardiac contractility in in vivo settings. Male Lewis rats (Charles River, USA) at 2-3 months of age were used for the study. Heart failure was induced by permanent ligation of the left descending coronary artery which results in injury to the heart with an ejection fraction of <35%. APJ agonists were administered dose dependently acutely for a period of 30 min. Administration of example compounds lead to an increase in cardiac contractility as measured by dP/dtmax (derivative of left ventricular pressure) (Table 29).

SMILES	improvement in contractility or ejection fraction
C[C@H](CS)C(=O)N1CCC[C@H]1C(=O)O [Captopril, captopril]	does not show a marked improvement in contractility or ejection fraction

Biological target: human APJ receptor (Homo sapiens (Human), UniProt P35414)
Sequence (P35414 whole entry): as above
Test: [35S]GTPγS binding assay on membranes from CHO cells stably expressing human APJ receptor
Assay type: biochemical
Details: means of several independent experiments, read-out: Activity hAPJ SPA EC50 IP
Summary of the method: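 Membranes from CHO cells stably expressing FLAG-tagged human APJ incubated with [35S]GTPγS in buffer with optimized GDP, MgCl2 and NaCl levels, 90 min at RT. Signal read by imaging; EC50 by non-linear regression from means of several independent experiments.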

SMILES	EC50
COc1cccc(OC)c1-n1c(NS(=O)(=O)[C@@H](C)[C@H](OC)c2ncc(C)cn2)nnc1-c1cccc(F)c1 [Example 85.0, (1R,2S)—N-(4-(2,6-Dimethoxyphenyl)-5-(3-fluorophenyl)-4H-1,2,4-triazol-3-yl)-1-methoxy-1-(5-methyl-2-pyrimidinyl)-2-propanesulfonamide]	0.92 nM
COc1cccc(OC)c1-n1c(NS(=O)(=O)[C@@H](C)[C@H](OC)c2ncc(C)cn2)nnc1-c1cccc(C#N)c1 [Example 86.0, (1R,2S)-N-(5-(3-cyanophenyl)-4-(2,6-dimethoxyphenyl)-4H-1,2,4-triazol-3-yl)-1-methoxy-1-(5-methyl-2-pyrimidinyl)-2-propanesulfonamide]	10.6 nM
COc1cccc(OC)c1-n1c(NS(=O)(=O)[C@@H](C)[C@H](OC)c2ncc(C)cn2)nnc1-c1cccc(Cl)c1 [Example 87.0, (1R,2S)-N-(5-(3-chlorophenyl)-4-(2,6-dimethoxyphenyl)-4H-1,2,4-triazol-3-yl)-1-methoxy-1-(5-methyl-2-pyrimidinyl)-2-propanesulfonamide]	0.56 nM
COc1cccc(OC)c1-n1c(NS(=O)(=O)[C@@H](C)[C@H](OC)c2ncc(C)cn2)nnc1-c1cccc(OC(F)(F)F)c1 [Example 89.0, (1R,2S)—N-(4-(2,6-Dimethoxyphenyl)-5-(3-(trifluoromethoxy)phenyl)-4H-1,2,4-triazol-3-yl)-1-methoxy-1-(5-methyl-2-pyrimidinyl)-2-propanesulfonamide]	0.47 nM
COc1cccc(OC)c1-n1c(NS(=O)(=O)[C@@H](C)[C@H](OC)c2ncc(C)cn2)nnc1-c1cccc2ncccc12 [Example 90.0]	540 nM
COc1cccc(OC)c1-n1c(NS(=O)(=O)[C@@H](C)[C@H](OC)c2ncc(Cl)cn2)nnc1-c1cccc2cn(C)nc12 [Example 91.0]	2 nM
COc1cccc(OC)c1-n1c(NS(=O)(=O)[C@@H](C)[C@H](OC)c2ncc(C)cn2)nnc1-c1cccc2cn(C)nc12 [Example 92.0]	60 nM
COc1ncnc(OC)c1-n1c(NS(=O)(=O)[C@@H](C)[C@H](OC)c2ncc(C)cn2)nnc1-c1cccc2cn(C)nc12 [Example 93.0]	41 nM
COc1ncnc(OC)c1-n1c(NS(=O)(=O)[C@@H](C)[C@H](OC)c2ncc(Cl)cn2)nnc1-c1cccc2cn(C)nc12 [Example 94.0]	2.9 nM
COc1cccc(OC)c1-n1c(NS(=O)(=O)[C@@H](C)[C@H](OC)c2ncc(C)cn2)nnc1-c1cccc2cnccc12 [Example 95.0]	340 nM
COCC(COC)n1c(NS(=O)(=O)[C@@H](C)[C@H](OC)c2ncc(Cl)cn2)nnc1-c1ccccc1 [Example 96.0, (1R,2S)-1-(5-Chloro-2-pyrimidinyl)-N-(4-(1,3-dimethoxy-2-propanyl)-5-phenyl-4H-1,2,4-triazol-3-yl)-1-methoxy-2-propanesulfonamide]	16 nM
COCC1(n2c(NS(=O)(=O)[C@@H](C)[C@H](OC)c3ncc(Cl)cn3)nnc2-c2ccccc2)CC1 [Example 97.0, (1R,2S)-1-(5-Chloro-2-pyrimidinyl)-1-methoxy-N-(4-(1-(methoxymethyl)cyclopropyl)-5-phenyl-4H-1,2,4-triazol-3-yl)-2-propanesulfonamide]	1 nM
CO[C@H](c1ncc(Cl)cn1)[C@H](C)S(=O)(=O)Nc1nnc(-c2ccccc2)n1C1(C)CC1 [Example 98.0]	3.3 nM
Cc1cnc([C@H](OC(C)C)[C@H](C)S(=O)(=O)Nc2nnc(-c3ccccc3)n2C2(C)CC2)nc1 [Example 99.0]	8 nM
CO[C@H](c1ncc(Cl)cn1)[C@H](C)S(=O)(=O)Nc1nnc(-c2ccccc2)n1C(C)C [Example 110.0]	75 nM
COCC1(n2c(NS(=O)(=O)[C@@H](C)[C@H](OC)c3ncc(Cl)cn3)nnc2-c2cccc3nn(C)cc23)CC1 [Example 114.0]	53 nM
CO[C@H](c1ncc(Cl)cn1)[C@H](C)S(=O)(=O)Nc1nnc(-c2cccc3nn(C)cc23)n1C1CC1 [Example 115.0]	11 nM
CO[C@H](c1ncc(Cl)cn1)[C@H](C)S(=O)(=O)Nc1nnc(-c2cccc3nn(C)cc23)n1C(C)C [Example 116.0]	220 nM
COCC1(n2c(NS(=O)(=O)[C@@H](C)[C@H](OC)c3ncc(Cl)cn3)nnc2-c2cccc3nn(C)cc23)CCC1 [Example 117.0]	340 nM
COc1ccccc1-c1nnc(NS(=O)(=O)[C@@H](C)[C@H](OC)c2ncc(Cl)cn2)n1[C@@H]1CCCOC1 [Example 118.0]	180 nM
COc1cccc(-c2nnc(NS(=O)(=O)[C@@H](C)[C@H](OC)c3ncc(Cl)cn3)n2[C@H]2CCCOC2)c1 [Example 119.0]	22 nM
Cc1cnc([C@@H](C)[C@H](C)S(=O)(=O)Nc2nnc(-c3cccc4nn(C)cc34)n2C2CCOCC2)nc1 [Example 120.0]	590 nM
CO[C@H](c1ncc(Cl)cn1)[C@H](C)S(=O)(=O)Nc1nnc(-c2cccc(S(C)(=O)=O)c2)n1C1CC1 [Example 121.0, (1R,2S)-1-(5-Chloropyrimidin-2-yl)-N-(4-cyclopropyl-5-(3-(methylsulfonyl)phenyl)-4H-1,2,4-triazol-3-yl)-1-methoxypropane-2-sulfonamide]	590 nM
CO[C@H](c1ncc(Cl)cn1)[C@H](C)S(=O)(=O)Nc1nnc(-c2cccc(OC(F)F)c2)n1C1CC1 [Example 122.0, (1R,2S)-1-(5-Chloropyrimidin-2-yl)-N-(4-cyclopropyl-5-(3-(difluoromethoxy)phenyl)-4H-1,2,4-triazol-3-yl)-1-methoxypropane-2-sulfonamide]	250 nM
COCC(COC)n1c(NS(=O)(=O)[C@@H](C)[C@@H](OC(C)C)c2ncc(Cl)cn2)nnc1-c1ccccc1 [Example 123.0]	7.2 nM
COC[C@@H](C)n1c(NS(=O)(=O)[C@@H](C)[C@H](OC)c2ncc(Cl)cn2)nnc1-c1ccccc1 [Example 124.0]	57 nM
COC[C@H](C)n1c(NS(=O)(=O)[C@@H](C)[C@H](C)c2ncc(Cl)cn2)nnc1-c1ccccc1 [Example 126.0]	17 nM
COc1ncnc(OC)c1-n1c(NS(=O)(=O)[C@@H](C)[C@H](C)c2ccc(Cl)cn2)nnc1-c1ccccc1 [Example 127.0]	0.96 nM
COc1cnc([C@@H](C)[C@H](C)S(=O)(=O)Nc2nnc(-c3ccccc3Br)n2C2COC(C)(C)OC2)nc1 [Example 128.0]	910 nM
COCCn1c(NS(=O)(=O)[C@@H](C)[C@H](OC)c2ncc(Cl)cn2)nnc1-c1ccccc1 [Example 129.0]	14 nM
